The values below come from patent publication US20170320870A1 (Medical Research Council Technology, priority 2009, published 2017).

Where only a bound is given, the exact number is not on record here.

This experiment deals with T1, LRRK2 wild type (recombinant human, catalytic domain amino acids 970-2527, GST-tagged) (Homo sapiens, UniProt Q5S007).
T1 construct: The wild type used was recombinant human, catalytic domain (amino acids 970-2527) GST-tagged, expressed in insect cells; GST; purchased Invitrogen Corporation PV4873; host or cells: insect cells
T1 sequence (Q5S007 970-2527): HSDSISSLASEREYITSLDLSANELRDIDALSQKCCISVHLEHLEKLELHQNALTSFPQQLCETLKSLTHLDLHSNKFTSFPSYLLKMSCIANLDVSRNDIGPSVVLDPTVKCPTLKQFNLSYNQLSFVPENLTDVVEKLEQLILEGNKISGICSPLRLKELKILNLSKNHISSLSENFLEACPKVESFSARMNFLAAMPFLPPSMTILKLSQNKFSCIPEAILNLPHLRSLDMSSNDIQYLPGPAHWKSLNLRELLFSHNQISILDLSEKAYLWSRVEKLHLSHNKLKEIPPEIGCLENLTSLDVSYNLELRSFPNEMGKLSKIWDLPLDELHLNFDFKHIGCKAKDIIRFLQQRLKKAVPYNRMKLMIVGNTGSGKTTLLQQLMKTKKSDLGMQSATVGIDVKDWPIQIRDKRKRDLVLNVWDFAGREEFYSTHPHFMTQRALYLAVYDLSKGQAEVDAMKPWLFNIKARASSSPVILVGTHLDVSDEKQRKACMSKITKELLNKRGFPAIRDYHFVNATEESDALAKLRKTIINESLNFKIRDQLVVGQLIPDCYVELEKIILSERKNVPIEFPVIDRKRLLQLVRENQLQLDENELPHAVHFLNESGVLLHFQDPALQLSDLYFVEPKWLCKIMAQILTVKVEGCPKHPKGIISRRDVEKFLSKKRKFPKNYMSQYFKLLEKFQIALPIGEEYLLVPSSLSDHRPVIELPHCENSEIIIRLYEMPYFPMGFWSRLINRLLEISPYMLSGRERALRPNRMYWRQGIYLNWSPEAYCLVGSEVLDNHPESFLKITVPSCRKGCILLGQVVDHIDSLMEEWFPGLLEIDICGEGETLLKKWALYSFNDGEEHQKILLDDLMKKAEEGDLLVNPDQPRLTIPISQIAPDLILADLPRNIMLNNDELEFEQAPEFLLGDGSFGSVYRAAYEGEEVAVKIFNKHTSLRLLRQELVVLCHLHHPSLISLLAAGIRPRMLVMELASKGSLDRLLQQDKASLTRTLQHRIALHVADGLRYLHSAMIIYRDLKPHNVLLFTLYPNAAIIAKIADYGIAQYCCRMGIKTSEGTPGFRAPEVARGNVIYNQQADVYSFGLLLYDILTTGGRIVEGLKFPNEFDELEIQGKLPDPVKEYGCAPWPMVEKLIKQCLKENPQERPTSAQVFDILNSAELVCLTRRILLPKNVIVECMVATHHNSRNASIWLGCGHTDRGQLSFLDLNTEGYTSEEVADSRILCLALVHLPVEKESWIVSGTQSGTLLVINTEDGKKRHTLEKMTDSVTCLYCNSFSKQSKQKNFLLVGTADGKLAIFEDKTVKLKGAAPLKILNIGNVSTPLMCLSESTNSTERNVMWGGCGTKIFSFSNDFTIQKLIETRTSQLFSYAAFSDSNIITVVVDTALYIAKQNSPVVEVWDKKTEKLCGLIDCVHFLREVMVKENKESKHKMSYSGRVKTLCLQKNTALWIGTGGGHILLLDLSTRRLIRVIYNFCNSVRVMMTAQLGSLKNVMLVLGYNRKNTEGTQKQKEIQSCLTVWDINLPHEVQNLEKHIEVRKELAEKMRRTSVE
Nature of the experiment: LRRK2 wild type protein kinase assay ([γ-33P] ATP, peptide substrate […]), IC50. The experiment is classed as biochemical. To be noted: LRRK2 (variant not given); read-out: Potency score, LRRK2 IC50. In a few lines: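 Insect-cell-expressed enzyme (~5 nM), no activation, incubated 180 min at ~21 °C in 50 mM Tris-HCl pH 7.5, 0.1 mM EGTA, 1 mM DTT, 10 mM MgCl2 with 100 μM peptide substrate and [γ-33P]ATP. Reaction stopped with orthophosphoric acid, captured on P81 filters and counted; IC50 from 10 concentrations in duplicate.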
By IC50 is commonly meant the concentration at which inhibition is half-maximal. `CC1CN(C(=O)CCc2n[nH]c3ccnc(NC4CCCCC4)c23)C1` [Example 241, 3-(4-Cyclohexyl-amino-1H-pyrazolo [4,3-c]pyridin-3-yl)-1-(3-methyl-azetidin-1-yl)-propan-1-one]: the IC50 was under 0.1 µM.
With `Cc1n[nH]c2ccnc(Nc3cccc(Br)c3)c12` [Example 67, (3-Bromo-phenyl)-(3-methyl-1H-pyrazolo[4,3-c]pyridin-4-yl)-amine] the figure was 0.1 to 1 µM.
With `c1ccc(-c2n[nH]c3ccnc(NC4CCCCC4)c23)cc1` [Example 136, Cyclohexyl-(3-phenyl-1H-pyrazolo[4,3-c]pyridin-4-yl)-amine] the figure was 0.1 to 1 µM.
The figure for `Cc1n[nH]c2ccnc(NCc3cccc(Cl)c3)c12` [Example 314, (3-Chloro-benzyl)-(3-methyl-1H-pyrazolo[4,3-c]pyridin-4-yl)-amine] is 1 to 10 µM; for `Cc1n[nH]c2ccnc(O[C@@H]3CCC[C@H]3C)c12` (racemic) [Example 298, Trans-3-Methyl-4-(2-methyl-cyclopentyloxy)-1H-pyrazolo[4,3-c]pyridine] it is under 0.1 µM.
For the compound `O=C(CCc1n[nH]c2ccnc(NC3CCCCC3)c12)N1CCC(c2ccccc2)CC1` [Example 204, 3-(4-Cyclohexylamino-1H-pyrazolo[4,3-c]pyridin-3-yl)-1-(4-phenyl-piperidin-1-yl)-propan-1-one], the half-maximal inhibitory concentration (IC50) is under 0.1 µM.
The figure for `COc1ccc(CNc2nccc3[nH]nc(C)c23)c(OC)c1` [Example 97, (2,4-Dimethoxy-benzyl)-(3-methyl-1H-pyrazolo[4,3-c]pyridin-4-yl)-amine] is 1 to 10 µM; for `CCC(CC)Nc1nccc2[nH]nc(C)c12` [Example 41, (1-Ethyl-propyl)-(3-methyl-1H-pyrazolo[4,3-c]pyridin-4-yl)-amine] it is 0.1 to 1 µM.
The figure for `Cc1n[nH]c2ccnc(OCC3CCCCC3)c12` [Example 278, 4-Cyclohexyl-methoxy-3-methyl-1H-pyrazolo[4,3-c] pyridine] is 0.1 to 1 µM.
The figure for `CCC[C@H](C)Oc1nccc2[nH]nc(C)c12` [Example 285, 3-Methyl-4-((S)-1-methyl-butoxy)-1H-pyrazolo[4,3-c]pyridine] is 0.1 to 1 µM; for `Cc1n[nH]c2ccnc(N3CCOCC3)c12` [Example 10, 3-Methyl-4-morpholin-4-yl-1H-pyrazolo[4,3-c]pyridine] it is 1 to 10 µM.
With `N#Cc1ccc(-c2n[nH]c3ccnc(NC4CCCCC4)c23)cc1` [Example 158], the 50% inhibitory concentration (IC50) is 1 to 10 µM.
With `Cc1n[nH]c2ccnc(Nc3cccc(C(F)(F)F)c3)c12` [Example 66, (3-Methyl-1H-pyrazolo[4,3-c]pyridin-4-yl)-(3-trifluoromethyl-phenyl)-amine] the figure was 0.1 to 1 µM.
With `Cc1n[nH]c2ccnc(NC3CC3)c12` [Example 11, Cyclopropyl-(3-methyl-1H-pyrazolo[4,3-c]pyridin-4-yl)-amine] the figure was 1 to 10 µM.
The figure for `Cc1n[nH]c2ccnc(Nc3ccc4cnn(C)c4c3)c12` [Example 90, (1-Methyl-1H-indazol-6-yl)-(3-methyl-1H-pyrazolo[4,3-c]pyridin-4-yl)-amine] is 0.1 to 1 µM.
Consider `COC1CCCN(C(=O)CCc2n[nH]c3ccnc(NC4CCCCC4)c23)C1` (centres unmarked) [Example 196, 3-(4-Cyclohexylamino-1H-pyrazolo[4,3-c]pyridin-3-yl)-1-(3-methoxy-piperidin-1-yl)-propan-1-one], for which the IC50 lay in the range of 0.1 to 1 µM.
With `Cc1n[nH]c2ccnc(NCc3ccccn3)c12` [Example 312, (3-Methyl-1H-pyrazolo[4,3-c]pyridin-4-yl)-pyridin-2-ylmethyl-amine] the figure was 1 to 10 µM; with `Cc1n[nH]c2ccnc(Nc3ccc(C(=O)N(C)C)cc3)c12` [Example 74, N,N-Dimethyl-4-(3-methyl-1H-pyrazolo[4,3-c]pyridin-4-ylamino)-benzamide], 0.1 to 1 µM; with `O=C(CCc1n[nH]c2ccnc(NC3CCCCC3)c12)NC1CC1` [Example 171, 3-(4-Cyclohexylamino-1H-pyrazolo[4,3-c]pyridin-3-yl)-N-cyclopropyl-propionamide], 1 to 10 µM.
With `Clc1ccc(-c2n[nH]c3ccnc(NC4CCCCC4)c23)cc1` [Example 145, [3-(4-Chloro-phenyl)-1H-pyrazolo[4,3-c]pyridin-4-yl]-cyclohexyl-amine] the figure was 0.1 to 1 µM; with “1-(3-Benzyl-piperidin-1-yl)- 3-(4-cyclohexylamino-1H- pyrazolo[4,3-c]pyridin-3-yl)- propan-1-one [Example 200]”, 0.1 to 1 µM.
With `Cc1n[nH]c2ccnc(O[C@H]3C[C@@H]4CC[C@H]3C4)c12` (racemic) [Example 291] the figure was 0.1 to 1 µM; with `Cc1n[nH]c2ccnc(NC3CCN(C(=O)CCN4CCOCC4)CC3)c12` [Example 103, 1-[4-(3-Methyl-1H-pyrazolo[4,3-c]pyridin-4-ylamino)-piperidin-1-yl]-3-morpholin-4-yl-propan-1-one], 1 to 10 µM.
Turning to `Cc1cc(C)c(Nc2nccc3[nH]nc(C)c23)cn1` [Example 350, (4,6-Dimethyl-pyridin-3-yl)-(3-methyl-1H-pyrazolo[4,3-c]pyridin-4-yl)-amine], the IC50 lay within 1 to 10 µM.
For `CCC[C@@H](C)Oc1nccc2[nH]nc(C)c12` [Example 286, 3-Methyl-4-((R)-1-methyl-butoxy)-1H-pyrazolo[4,3-c]pyridine], the IC50 lay in the range of 0.1 to 1 µM.
As to `CC[C@@H](C)Oc1nccc2[nH]nc(C)c12` [Example 122, 4-((R)-sec-Butoxy)-3-methyl-1H-pyrazolo[4,3-c] pyridine], the IC50 is under 0.1 µM.
With `CC(C)n1cc(-c2n[nH]c3ccnc(NC4CCCCC4)c23)cn1` [Example 235, Cyclohexyl-[3-(1-isopropyl-1H-pyrazol-4-yl)-1H-pyrazolo[4,3-c]pyridin-4-yl]-amine] the figure was under 0.1 µM.
With `Oc1nccc2[nH]nc(-c3ccoc3)c12` [Example 167, 3-Furan-3-yl-1H-pyrazolo[4,3-c]pyridin-4-ol] the figure was 0.1 to 1 µM; with `O=C(CCc1n[nH]c2ccnc(NC3CCCCC3)c12)N1CC(c2ccccc2)C1` [Example 242, 3-(4-Cyclohexylamino-1H-pyrazolo[4,3-c]pyridin-3-yl)-1-(3-phenyl-azetidin-1-yl)-propan-1-one], 0.1 to 1 µM.
`Cc1n[nH]c2ccnc(NCCCO)c12` [Example 301, 3-(3-Methyl-1H-pyrazolo[4,3-c]pyridin-4-ylamino)-propan-1-ol]: the half-inhibitory concentration (IC50) was 1 to 10 µM.
With `COCCNc1nccc2[nH]nc(C)c12` [Example 6, (2-Methoxy-ethyl)-(3-methyl-1H-pyrazolo[4,3-c]pyridin-4-yl)-amine] the figure was 1 to 10 µM; with `COCCN1CCN(C(=O)CCc2n[nH]c3ccnc(NC4CCCCC4)c23)CC1` [Example 178, 3-(4-Cyclohexylamino-1H-pyrazolo[4,3-c]pyridin-3-yl)-1-[4-(2-methoxy-ethyl)-piperazin-1-yl]-propan-1-one], 0.1 to 1 µM.
The figure for `Cc1n[nH]c2ccnc(O[C@H]3CC[C@H](C)CC3)c12` [Example 294, Trans-3-Methyl-4-(4-methyl-cyclohexyloxy)-1H-pyrazolo[4,3-c]pyridine] is under 0.1 µM; for `Cc1n[nH]c2ccnc(NCc3ccc(C#N)cc3)c12` [Example 327, 4-[(3-Methyl-1H-pyrazolo[4,3-c]pyridin-4-ylamino)-methyl]-benzonitrile] it is 1 to 10 µM.
The figure for `N#CCc1ccc(-c2n[nH]c3ccnc(NC4CCCCC4)c23)cc1` [Example 156, [4-(4-Cyclohexylamino-1H-pyrazolo[4,3-c]pyridin-3-yl)-phenyl]-acetonitrile] is 0.1 to 1 µM; for `Cc1n[nH]c2ccnc(N3CCN(Cc4cc(F)ccc4F)CC3)c12` [Example 8, 4-[4-(2,5-Difluoro-benzyl)-piperazin-1-yl]-3-methyl-1H-pyrazolo[4,3-c]pyridine] it is 1 to 10 µM; for `Cc1n[nH]c2ccnc(Nc3ccc4cn(C)nc4c3)c12` [Example 64, (2-Methyl-2H-indazol-6-yl)-(3-methyl-1H-pyrazolo[4,3-c]pyridin-4-yl)-amine] it is 1 to 10 µM.
In the case of `O=C(c1ccc(CCc2n[nH]c3ccnc(NC4CCCCC4)c23)cc1)N1CCOCC1` [Example 253, {4-[2-(4-Cyclohexylamino-1H-pyrazolo[4,3-c]pyridin-3-yl)-ethyl]-phenyl}-morpholin-4-yl-methanone], the 50% inhibitory concentration (IC50) is under 0.1 µM.
With `O=C(Nc1ccc(CCc2n[nH]c3ccnc(NC4CCCCC4)c23)cc1)c1cocn1` [Example 268, Oxazole-4-carboxylic acid {4-[2-(4-cyclohexylamino-1H-pyrazolo[4,3-c]pyridin-3-yl)-ethyl]-phenyl}-amide] the figure was under 0.1 µM; with `FC(F)(F)c1ccc(-c2n[nH]c3ccnc(NC4CCCCC4)c23)cc1` [Example 157], 1 to 10 µM; with `c1cc2[nH]nc(C3CC3)c2c(NC2CCCCC2)n1` [Example 138, Cyclohexyl-(3-cyclopropyl-1H-pyrazolo[4,3-c]pyridin-4-yl)-amine], 0.1 to 1 µM.
The figure for `O=C(NCc1ccco1)c1ccc(CCc2n[nH]c3ccnc(NC4CCCCC4)c23)cc1` [Example 250, 4-[2-(4-Cyclohexylamino-1H-pyrazolo[4,3-c]pyridin-3-yl)-ethyl]-N-furan-2-ylmethyl-benzamide] is under 0.1 µM.
With `Cc1n[nH]c2ccnc(-c3cccc(F)c3)c12` [Example 51, 4-(3-Fluoro-phenyl)-3-methyl-1H-pyrazolo[4,3-c]pyridine] the figure was 1 to 10 µM.
As for `Cc1n[nH]c2ccnc(NCCc3ccc(F)cc3)c12` [Example 334, [2-(4-Fluoro-phenyl)-ethyl]-(3-methyl-1H-pyrazolo[4,3-c]pyridin-4-yl)-amine], the half-inhibitory concentration (IC50) is 0.1 to 1 µM.
